One assay deals with T1, USP5 (Homo sapiens, UniProt P45974).
T1 sequence (P45974 1-858): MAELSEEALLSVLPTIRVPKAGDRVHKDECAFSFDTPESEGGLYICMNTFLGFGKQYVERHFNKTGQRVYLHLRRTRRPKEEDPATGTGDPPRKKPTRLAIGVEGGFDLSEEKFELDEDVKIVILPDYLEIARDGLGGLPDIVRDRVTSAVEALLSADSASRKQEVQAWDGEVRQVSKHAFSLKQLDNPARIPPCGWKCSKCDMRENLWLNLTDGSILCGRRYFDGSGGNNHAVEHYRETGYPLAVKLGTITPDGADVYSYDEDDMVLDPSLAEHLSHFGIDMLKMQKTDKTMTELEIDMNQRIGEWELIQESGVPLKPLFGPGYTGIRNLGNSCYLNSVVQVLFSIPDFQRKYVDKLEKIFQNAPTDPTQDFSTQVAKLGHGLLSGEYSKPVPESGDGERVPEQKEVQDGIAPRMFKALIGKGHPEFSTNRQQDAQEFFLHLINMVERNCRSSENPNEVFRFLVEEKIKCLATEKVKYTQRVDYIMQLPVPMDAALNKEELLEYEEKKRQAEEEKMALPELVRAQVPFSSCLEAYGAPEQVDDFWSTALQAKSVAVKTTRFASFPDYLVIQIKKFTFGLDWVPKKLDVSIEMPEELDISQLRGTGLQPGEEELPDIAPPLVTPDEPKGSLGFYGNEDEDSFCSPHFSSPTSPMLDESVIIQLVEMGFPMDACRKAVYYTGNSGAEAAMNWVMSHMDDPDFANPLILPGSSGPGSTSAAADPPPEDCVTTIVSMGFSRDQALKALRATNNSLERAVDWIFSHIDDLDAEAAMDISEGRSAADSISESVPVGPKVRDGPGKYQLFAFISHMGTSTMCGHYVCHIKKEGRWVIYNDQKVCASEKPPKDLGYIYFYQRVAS
Nature of the assay: USP5 activity assay. The following applies: 400 nM Ub-AMC, 300 pM enzyme, 30 min pre-incubation at 25° C., 60 min at 37° C.; sigmoidal fit; AF: Autofluorescent; read-out: USP 5 (inhibition of cysteine protease activity). It is filed as biochemical. The method in brief:
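400 nM Ub-AMC, 300 pM enzyme; compounds pre-incubated with enzyme 30 min at 25° C, then reaction 60 min at 37° C, stopped with acetic acid (100 mM final). AMC fluorescence read; % of no-compound control vs log concentration fitted to variable-slope sigmoid; duplicates.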

In another assay the target is Cathepsin B (Homo sapiens, UniProt P07858). Nature of the assay: Cathepsin B activity assay. In kind it is biochemical. The settings on record: 36 μM z-RR-AMC, 3.6 nM enzyme, 30 min pre-incubation at 25° C., 60 min at 37° C.; sigmoidal fit; AF: Autofluorescent; read-out: cathepB (inhibition of cysteine protease activity). The protocol: Cathepsin B was diluted in Cathepsin B buffer (20 mM Tris HCl pH 6.8; 1 mM EDTA; 1 mM DTT). Compounds stocks (100 mM) were stored at −20° C. in DMSO. […] Reactions were performed as duplicates in Black LJL 96 well plates (HE microplates; Molecular Devices; 20 μl final reaction volume). The substrate concentration for cathepsin B specificity assay was 36 μM (z-RR-AMC; Calbiochem). The concentration of the enzyme (Cathepsin B) in specificity assays was 3.6 nM. The concentrations were determined in order to perform specificity assays under initial velocities at fixed substrate concentration. Compounds were pre-incubated with enzymes for 30 minutes at 25° C. Reactions were initiated by addition of substrate to the plates containing the enzymes (+/− compounds) diluted in assay buffer. Reactions were incubated for 60 minutes at 37° C. Reactions were stopped by adding acetic acid (100 mM final). Readings were performed on a Pherastar Fluorescent Reader (BMG). δ Emission 380 nm; 6 Excitation=460 nm. Data (mean values+/− standard deviation) were analyzed as % of control (no compound) and plotted as percentage versus the Log of the compound concentration using GraphPad (Prism). Data were fitted to a sigmoidal model (variable slope).

For assay [1], the system named is HCT116 colon cancer cells. Kind of assay: HCT116 cell viability and proliferation assay (MTS). In kind it is cell-based. The settings on record: Homo sapiens, read-out: HCT116 D3 GI50.
For assay [2], the system named is PC-3 prostate cancer cells. Nature of the assay: PC3 cell viability and proliferation assay (MTS). It is filed as cell-based. The settings on record: Homo sapiens, PC-3, 72 h, read-out: PC3 D3 GI50.
The mark [3] stands for this setting: HCT-116, HCT116 cells, 72 hours incubation, MTS, mean of 3 independent experiments.
Setting [4] is: PC3 cells, 72 hours incubation, MTS, mean of 3 independent experiments.

Like-named read-outs stand apart in the source and are kept apart here.

One may read the GI50 as the concentration giving 50% growth inhibition. With `CCc1ccc2c(c1)-c1nc(C#N)c(C#N)nc1C2=O` [Example 32, 6-ethyl-9-oxo-9H-indeno[1,2-b]pyrazine-2,3-dicarbonitrile], the values for the IC50 on USP5 and at Cathepsin B were 1670 nM and 69000 nM, respectively. The GI50 in assay [1] (HCT-116, 72 h) was 385 nM; in assay [2], 1430 nM.
Take `N#Cc1nc2c(nc1N)-c1ccccc1C2=O` [Example 7, 3-amino-9-oxo-9H-indeno[1,2-b]pyrazine-2-carbonitrile]: the IC50 at USP5 and at Cathepsin B was over 100000 nM throughout. Moreover, the GI50 in assay [1] (setting [3]) and in assay [2] (setting [4]) was over 10000 nM in each case.
In the case of `CC(=O)O/N=C1\c2ccccc2-c2nc(C(N)=O)c(C#N)nc21` (single isomer, unassigned) [Example 35, 2-cyano-9-acetoxyimino-9H-indeno[1,2-b]pyrazine-3-carboxylic acid amide], the IC50 at USP5 stood at 161 nM; at Cathepsin B, 11500 nM. In addition, the GI50 in assay [1] (HCT-116, 72 h) turned out to be 1350 nM; in assay [2], 1280 nM.
For the compound `N#Cc1nc2c(nc1C#N)-c1ccc(Cl)cc1C2=NNC(N)=O` [Example 43, 9-[(aminocarbonyl)hydrazono]-7-chloro-9H-indeno[1,2-b]pyrazine-2,3-dicarbonitrile], the IC50 on USP5 and at Cathepsin B was over 100000 nM in each case. Moreover, the GI50 came out at 512 nM in assay [1] (HCT-116, 72 h) and 655 nM in assay [2].
For `N#Cc1nc2c(nc1C#N)-c1ccc(F)cc1C2=O` [Example 17h, 7-Fluoro-9-oxo-9H-indeno[1,2-b]pyrazine-2,3-dicarbonitrile], the IC50 on USP5 came out at 1000 nM; on Cathepsin B it was 6000 nM. Besides, the GI50 in assay [1] (setting [3]) was found to be 160 nM; in assay [2] (setting [4]), 570 nM.
Regarding `CON=C1c2ccccc2-c2nc(C#N)c(C#N)nc21` [Example 13a, 9-(methoxyimino)-9H-indeno[1,2-b]pyrazine-2,3-dicarbonitrile], the IC50 was 19500 nM at USP5 and over 100000 nM on Cathepsin B. Also, the GI50 is 390 nM in assay [1] (HCT-116, 72 h) and 430 nM in assay [2].
Take `N#Cc1nc2c(nc1C#N)C1(OCCO1)c1ccccc1-2` [Example 10]: the IC50 at USP5 and at Cathepsin B was over 100000 nM in each case. Further, the GI50 was found to be 3400 nM in assay [1] (setting [3]) and 4400 nM in assay [2] (setting [4]).
Take `N#Cc1nc2c(nc1C#N)-c1ccccc1/C2=N/Oc1ccccc1` [Example 13e, 9-Phenoxyimino-9H-indeno[1,2-b]pyrazine-2,3-dicarbonitrile]: the IC50 on USP5 was 32000 nM; at Cathepsin B, over 100000 nM. The GI50 in assay [1] (setting [3]) was 540 nM; in assay [2] (setting [4]) it was 530 nM.
As for `CCON=C1c2ccccc2-c2nc(C(N)=O)c(C#N)nc21` [Example 34b, 2-Cyano-9-ethoxyimino-9H-indeno[1,2-b]pyrazine-3-carboxylic acid amide], the values for the IC50 at USP5 and on Cathepsin B were 523 nM and over 100000 nM, respectively. In addition, the GI50 in assay [1] (HCT-116, 72 h) was 469 nM; in assay [2], 479 nM.
In the case of `N#Cc1nc2c(nc1C#N)-c1ccccc1C2=NO` [Example 12, 9-[hydroxyimino]-9H-indeno[1,2-b]pyrazine-2,3-dicarbonitrile], the results for the IC50 at USP5 and on Cathepsin B were 45000 nM and 21000 nM, respectively. Further, the GI50 in assay [1] (setting [3]) came out at 6500 nM; in assay [2] (setting [4]), 4400 nM.

The record behind these values is patent US8648076B2, “Cysteine protease inhibitors and their therapeutic applications” (Hybrigenics SA, priority 2005, dated 2014).
